Data reported in PubChem BioAssay (NCI).
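Grown in 96-well plates, cells were treated for 48 hours with each compound at five concentrations. Insufficient inhibition: endpoint recorded as highest concentration tested. GI50 = concentration required for 50% inhibition of growth. The concentration for full growth arrest is given as TGI.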

Experiments:
Assay in all cases: growth of human tumour cells (NCI), 48 h
NCI-H23 lung = system: NCI-H23 lung
NCI-H522 lung = system: NCI-H522 lung
NCI-H226 lung = system: NCI-H226 lung
MCF7 breast = system: MCF7 breast
BT-549 breast = system: BT-549 breast
IGROV1 ovarian = system: IGROV1 ovarian
SK-MEL-28 melanoma = system: SK-MEL-28 melanoma
A498 renal = system: A498 renal
SW-620 colon = system: SW-620 colon
DU-145 prostate = system: DU-145 prostate
NCI/ADR-RES ovarian = system: NCI/ADR-RES ovarian
MDA-MB-435 = system: MDA-MB-435
U251 CNS = system: U251 CNS
RPMI-8226 leukemia = system: RPMI-8226 leukemia
SN12C renal = system: SN12C renal
OVCAR-5 ovarian = system: OVCAR-5 ovarian
MDA-MB-231 breast = system: MDA-MB-231 breast
KM12 colon = system: KM12 colon
786-0 renal = system: 786-0 renal
HCC-2998 colon = system: HCC-2998 colon
TK-10 renal = system: TK-10 renal
T-47D breast = system: T-47D breast
A549 NSCLC = system: A549 NSCLC
LOX IMVI melanoma = system: LOX IMVI melanoma
CCRF-CEM leukemia = system: CCRF-CEM leukemia
SF-295 CNS = system: SF-295 CNS
SK-MEL-2 melanoma = system: SK-MEL-2 melanoma
MOLT-4 leukemia = system: MOLT-4 leukemia
OVCAR-8 ovarian = system: OVCAR-8 ovarian
OVCAR-4 ovarian = system: OVCAR-4 ovarian
HCT-116 colon = system: HCT-116 colon
COLO 205 colon = system: COLO 205 colon
UO-31 renal = system: UO-31 renal
HOP-92 NSCLC = system: HOP-92 NSCLC
NCI-H460 lung = system: NCI-H460 lung
M14 melanoma = system: M14 melanoma
SNB-19 CNS = system: SNB-19 CNS
CAKI-1 renal = system: CAKI-1 renal
SK-MEL-5 melanoma = system: SK-MEL-5 melanoma
SF-268 CNS = system: SF-268 CNS
SNB-75 CNS = system: SNB-75 CNS
HS 578T breast = system: HS 578T breast
HT29 colon = system: HT29 colon
RXF 393 renal = system: RXF 393 renal
MALME-3M melanoma = system: MALME-3M melanoma
PC-3 prostate = system: PC-3 prostate
SK-OV-3 ovarian = system: SK-OV-3 ovarian
UACC-257 melanoma = system: UACC-257 melanoma
K-562 leukemia = system: K-562 leukemia
ACHN renal = system: ACHN renal
HCT-15 colon = system: HCT-15 colon
SR leukemia = system: SR leukemia
UACC-62 melanoma = system: UACC-62 melanoma
HOP-62 NSCLC = system: HOP-62 NSCLC
SF-539 CNS = system: SF-539 CNS

CCCc1ccc(S(=O)(=O)N[C@H]2CC[C@H]3[C@@H]4CCc5cc(O)ccc5[C@H]4CC[C@]23C)cc1
GI50 (NCI-H23 lung): 3.31 µM | TGI (NCI-H23 lung): 14.6 µM | GI50 (NCI-H522 lung): 2.32 µM | TGI (NCI-H522 lung): 9.09 µM | GI50 (NCI-H226 lung): 1.57 µM | TGI (NCI-H226 lung): 3.15 µM | GI50 (MCF7 breast): 2.66 µM | TGI (MCF7 breast): 7.29 µM | GI50 (BT-549 breast): 2.47 µM | TGI (BT-549 breast): 5.89 µM | GI50 (IGROV1 ovarian): 3.76 µM | TGI (IGROV1 ovarian): 14.3 µM | GI50 (SK-MEL-28 melanoma): 2.45 µM | TGI (SK-MEL-28 melanoma): 6.33 µM | GI50 (A498 renal): 1.78 µM | TGI (A498 renal): 5.45 µM | GI50 (SW-620 colon): 3.6 µM | TGI (SW-620 colon): 14.2 µM | GI50 (DU-145 prostate): 4.04 µM | TGI (DU-145 prostate): 14 µM | GI50 (NCI/ADR-RES ovarian): 2.75 µM | TGI (NCI/ADR-RES ovarian): 10.6 µM | GI50 (MDA-MB-435): 3.13 µM | TGI (MDA-MB-435): 11.1 µM | GI50 (U251 CNS): 1.95 µM | TGI (U251 CNS): 4.25 µM | GI50 (RPMI-8226 leukemia): 2.9 µM | TGI (RPMI-8226 leukemia): 10 µM | GI50 (SN12C renal): 1.75 µM | TGI (SN12C renal): 3.44 µM | GI50 (OVCAR-5 ovarian): 2.06 µM | TGI (OVCAR-5 ovarian): 4.44 µM | GI50 (MDA-MB-231 breast): 2.29 µM | TGI (MDA-MB-231 breast): 6.21 µM | GI50 (KM12 colon): 2.68 µM | TGI (KM12 colon): 7.81 µM | GI50 (786-0 renal): 3.02 µM | TGI (786-0 renal): 9.16 µM | GI50 (HCC-2998 colon): 4 µM | TGI (HCC-2998 colon): 13.7 µM | GI50 (TK-10 renal): 3.8 µM | TGI (TK-10 renal): 13.7 µM | GI50 (T-47D breast): 3.54 µM | TGI (T-47D breast): 10.8 µM | GI50 (A549 NSCLC): 3.22 µM | TGI (A549 NSCLC): 12.8 µM | GI50 (LOX IMVI melanoma): 1.72 µM | TGI (LOX IMVI melanoma): 3.17 µM | GI50 (CCRF-CEM leukemia): 2.72 µM | TGI (CCRF-CEM leukemia): 12 µM | GI50 (SF-295 CNS): 3.06 µM | TGI (SF-295 CNS): 10.9 µM | GI50 (SK-MEL-2 melanoma): 2.72 µM | TGI (SK-MEL-2 melanoma): 7.12 µM | GI50 (MOLT-4 leukemia): 2.36 µM | TGI (MOLT-4 leukemia): 9.18 µM | GI50 (OVCAR-8 ovarian): 3.29 µM | TGI (OVCAR-8 ovarian): 13.1 µM | GI50 (OVCAR-4 ovarian): 2.23 µM | TGI (OVCAR-4 ovarian): 9.57 µM | GI50 (HCT-116 colon): 1.78 µM | TGI (HCT-116 colon): 3.27 µM | GI50 (COLO 205 colon): 1.84 µM | TGI (COLO 205 colon): 3.28 µM | GI50 (UO-31 renal): 2.23 µM | TGI (UO-31 renal): 8.78 µM | GI50 (HOP-92 NSCLC): 1.91 µM | TGI (HOP-92 NSCLC): 5.65 µM | GI50 (NCI-H460 lung): 2.54 µM | TGI (NCI-H460 lung): 6.41 µM | GI50 (M14 melanoma): 3.21 µM | TGI (M14 melanoma): 10.3 µM | GI50 (SNB-19 CNS): 4.2 µM | TGI (SNB-19 CNS): 15.9 µM | GI50 (CAKI-1 renal): 3.45 µM | TGI (CAKI-1 renal): 11.9 µM | GI50 (SK-MEL-5 melanoma): 1.63 µM | TGI (SK-MEL-5 melanoma): 3.01 µM | GI50 (SF-268 CNS): 3.44 µM | TGI (SF-268 CNS): 13.4 µM | GI50 (SNB-75 CNS): 2.23 µM | TGI (SNB-75 CNS): 9.98 µM | GI50 (HS 578T breast): 3.33 µM | TGI (HS 578T breast): 12.9 µM | GI50 (HT29 colon): 3.19 µM | TGI (HT29 colon): 10.2 µM | GI50 (RXF 393 renal): 1.67 µM | TGI (RXF 393 renal): 4.42 µM | GI50 (MALME-3M melanoma): 2.82 µM | TGI (MALME-3M melanoma): 8.07 µM | GI50 (PC-3 prostate): 2.52 µM | TGI (PC-3 prostate): 11.7 µM | GI50 (SK-OV-3 ovarian): 3.65 µM | TGI (SK-OV-3 ovarian): 12.4 µM | GI50 (UACC-257 melanoma): 3.83 µM | TGI (UACC-257 melanoma): 15.7 µM | GI50 (K-562 leukemia): 3.06 µM | TGI (K-562 leukemia): 12 µM | GI50 (ACHN renal): 2.57 µM | TGI (ACHN renal): 8.06 µM | GI50 (HCT-15 colon): 2.26 µM | TGI (HCT-15 colon): 6.45 µM | GI50 (SR leukemia): 2.53 µM | TGI (SR leukemia): 8.06 µM | GI50 (UACC-62 melanoma): 1.92 µM | TGI (UACC-62 melanoma): 4.37 µM | GI50 (HOP-62 NSCLC): 4.65 µM | TGI (HOP-62 NSCLC): 15.8 µM | GI50 (SF-539 CNS): 2.12 µM | TGI (SF-539 CNS): 4.46 µM
